One block for each compound: values may come before it.
How the values were obtained:
[1] = target: T1, Lysine-specific demethylase 4E (Homo sapiens, UniProt B2RXH2)
T1 sequence (B2RXH2 whole entry): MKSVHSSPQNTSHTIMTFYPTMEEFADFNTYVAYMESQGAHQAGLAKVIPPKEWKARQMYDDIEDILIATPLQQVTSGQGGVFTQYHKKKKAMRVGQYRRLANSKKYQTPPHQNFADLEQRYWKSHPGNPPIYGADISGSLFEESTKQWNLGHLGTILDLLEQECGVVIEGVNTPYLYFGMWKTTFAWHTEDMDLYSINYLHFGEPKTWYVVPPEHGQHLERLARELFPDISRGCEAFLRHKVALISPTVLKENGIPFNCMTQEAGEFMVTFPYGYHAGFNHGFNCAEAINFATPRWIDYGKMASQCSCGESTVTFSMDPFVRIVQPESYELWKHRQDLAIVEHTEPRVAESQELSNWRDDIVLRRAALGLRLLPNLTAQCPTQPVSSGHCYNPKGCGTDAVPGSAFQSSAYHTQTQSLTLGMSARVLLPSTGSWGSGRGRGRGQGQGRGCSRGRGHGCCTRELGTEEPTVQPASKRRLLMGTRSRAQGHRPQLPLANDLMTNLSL

[2] = target: T1, Lysine-specific demethylase 4E; remark: listed apart in the source
[3] = target: T1, Lysine-specific demethylase 4E; experiment: Uncompetitive inhibition of JMJD2E relative to alpha-ketoglutarate
[4] = target: T1, Lysine-specific demethylase 4E; remark: listed apart in the source
Egl nine homolog 1 = Egl nine homolog 1 (Homo sapiens, UniProt Q9GZT9); experiment: Inhibition of human PHD2
[5] = target: Hypoxia-inducible factor 1-alpha inhibitor (Homo sapiens, UniProt Q9NWT6); experiment: Inhibition of asparaginyl hydroxylase factor-inhibiting-HIF
[6] = target: Lysine-specific histone demethylase 1A (Homo sapiens, UniProt O60341)
[7] = target: T1, Lysine-specific demethylase 4E; remark: listed apart in the source
[8] = target: T1, Lysine-specific demethylase 4E; remark: listed apart in the source

Chain of Egl nine homolog 1 (Q9GZT9 whole entry): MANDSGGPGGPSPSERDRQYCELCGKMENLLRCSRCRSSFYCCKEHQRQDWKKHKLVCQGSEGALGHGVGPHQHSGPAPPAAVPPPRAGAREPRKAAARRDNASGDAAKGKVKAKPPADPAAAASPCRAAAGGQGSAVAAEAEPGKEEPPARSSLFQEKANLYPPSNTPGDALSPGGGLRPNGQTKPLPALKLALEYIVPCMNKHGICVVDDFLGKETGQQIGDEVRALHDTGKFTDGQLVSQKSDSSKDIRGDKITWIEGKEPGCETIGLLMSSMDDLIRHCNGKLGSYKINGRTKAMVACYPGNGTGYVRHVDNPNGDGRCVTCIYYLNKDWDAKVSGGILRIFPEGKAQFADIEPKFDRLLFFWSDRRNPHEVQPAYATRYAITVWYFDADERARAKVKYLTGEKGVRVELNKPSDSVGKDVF
Chain of Hypoxia-inducible factor 1-alpha inhibitor (Q9NWT6 whole entry): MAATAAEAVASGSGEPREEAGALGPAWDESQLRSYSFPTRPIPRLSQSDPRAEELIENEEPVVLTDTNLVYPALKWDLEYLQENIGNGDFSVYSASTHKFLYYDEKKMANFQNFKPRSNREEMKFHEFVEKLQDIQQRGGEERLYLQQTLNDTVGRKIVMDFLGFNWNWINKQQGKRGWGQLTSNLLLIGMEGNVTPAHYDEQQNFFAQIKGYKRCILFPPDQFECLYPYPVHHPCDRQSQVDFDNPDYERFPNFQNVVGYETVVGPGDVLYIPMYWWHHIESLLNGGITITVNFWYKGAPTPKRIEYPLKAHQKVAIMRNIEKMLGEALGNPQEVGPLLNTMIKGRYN

SMILES: CC1(C)CCC2=C(O1)c1ccccc1C(=O)C2=O [LAPACHONE]
Ki [1]: 3.55 µM
IC50 [2]: 3 µM

Ki [3]: 1980 nM
SMILES: C[C@@](Cc1ccc(O)c(O)c1)(NN)C(=O)O [CARBIDOPA]

SMILES: O=c1cc(-c2ccccc2)oc2cc(O)c(O)c(O)c12 [BAICALEIN]
Ki [1]: 4.33 µM
IC50 [2]: 3 µM

IC50 [4]: 200 µM
SMILES: COc1ccccc1CSC[C@@H](NC(=O)C(=O)O)C(=O)O

IC50 (Egl nine homolog 1): > 1 mM
Ki [5]: 83 µM
SMILES: O=C(O)C(=O)N[C@H](CCc1ccccc1)C(=O)O

IC50 [4]: 5 µM
SMILES: O=C(O)C(=O)N[C@H](Cc1ccc(OS(=O)(=O)c2ccc(F)cc2)cc1)C(=O)O

SMILES: CC(C)COc1ccc(Cl)cc1C1CC1N (stereo not given)
IC50 [6]: 9 µM

IC50 [4]: 200 µM
SMILES: O=C(O)C(=O)N[C@H](CSCc1ccccc1)C(=O)O

Ki [1]: 1.92 µM
SMILES: Oc1ccc(C2CNCCc3c2cc(O)c(O)c3Cl)cc1 (stereo not given) [FENOLDOPAM]

IC50 [4]: 5 µM
SMILES: CC(C)(C)c1ccc(S(=O)(=O)Oc2ccc(C[C@@H](NC(=O)C(=O)O)C(=O)O)cc2)cc1

IC50 [7]: 5.4 µM
SMILES: O=C(O)C(=O)N[C@H](Cc1ccc(OS(=O)(=O)c2ccc(Br)cc2)cc1)C(=O)O

IC50 [8]: 4.8 µM
SMILES: O=C(NO)c1cccc(O)c1
